ChEMBL document CHEMBL1201862, “PubChem BioAssay data set” (2004)
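Tested at 5 concentrations; 48 h exposure; 96-well plates; endpoints linearly interpolated, else capped at highest concentration. At the GI50, growth is halved.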 The source made the active and inactive calls. Rule as the data show it: active = GI50 up to about 1.1 µM and inactive = higher.

How the values were obtained:
Assay in all cases: DTP human tumour cell line panel, 48 h
786-0 = test system: 786-0
A549 = test system: A549
ACHN = test system: ACHN
BT-549 = test system: BT-549
CAKI-1 = test system: CAKI-1
CCRF-CEM = test system: CCRF-CEM
COLO 205 = test system: COLO 205
DU-145 = test system: DU-145
EKVX = test system: EKVX
HCC 2998 = test system: HCC 2998
HCT-116 = test system: HCT-116
HCT-15 = test system: HCT-15
HOP-62 = test system: HOP-62
HOP-92 = test system: HOP-92
HT-29 = test system: HT-29
Hs-578T = test system: Hs-578T
IGROV-1 = test system: IGROV-1
K562 = test system: K562
KM12 = test system: KM12
LOX IMVI = test system: LOX IMVI
M14 = test system: M14
MDA-MB-231 = test system: MDA-MB-231
MDA-MB-435 = test system: MDA-MB-435
MDA-N = test system: MDA-N
MOLT-4 = test system: MOLT-4
Malme-3M = test system: Malme-3M
NCI-H226 = test system: NCI-H226
NCI-H23 = test system: NCI-H23
NCI-H460 = test system: NCI-H460
NCI-H522 = test system: NCI-H522
NCI/ADR-RES = test system: NCI/ADR-RES
OVCAR-3 = test system: OVCAR-3
OVCAR-4 = test system: OVCAR-4
OVCAR-5 = test system: OVCAR-5
OVCAR-8 = test system: OVCAR-8
PC-3 = test system: PC-3
RPMI-8226 = test system: RPMI-8226
RXF 393 = test system: RXF 393
SF-268 = test system: SF-268
SF-295 = test system: SF-295
SK-MEL-28 = test system: SK-MEL-28
SK-MEL-2 = test system: SK-MEL-2
SK-MEL-5 = test system: SK-MEL-5
SK-OV-3 = test system: SK-OV-3
SN12C = test system: SN12C
SNB-19 = test system: SNB-19
SNB-75 = test system: SNB-75
SR = test system: SR
SW-620 = test system: SW-620
T47D = test system: T47D
TK-10 = test system: TK-10
U-251 = test system: U-251
UACC-257 = test system: UACC-257
UACC-62 = test system: UACC-62
UO-31 = test system: UO-31
A498 = test system: A498
MCF7 = test system: MCF7

Structure (SMILES): CCCCCCCC(=O)NC(C)(C)C(=O)NCC(=O)NC(CC(C)C)C(=O)NC(C)(C)C(=O)NCC(=O)NCC(=O)NC(CC(C)C)C(=O)NC(C)(C)C(=O)NCC(=O)NC(C(=O)NC(CO)CC(C)C)C(C)CC (centres undefined)
- GI50 (786-0): 4.61 µM (inactive)
- GI50 (A549): 4.36 µM (inactive)
- GI50 (ACHN): 5 µM (inactive)
- GI50 (BT-549): 3.59 µM (inactive)
- GI50 (CAKI-1): 4.12 µM (inactive)
- GI50 (CCRF-CEM): 4.26 µM (inactive)
- GI50 (COLO 205): 3.81 µM (inactive)
- GI50 (DU-145): 4.55 µM (inactive)
- GI50 (EKVX): 3.63 µM (inactive)
- GI50 (HCC 2998): 4.29 µM (inactive)
- GI50 (HCT-116): 3.78 µM (inactive)
- GI50 (HCT-15): 4.86 µM
- GI50 (HOP-62): 4.28 µM (inactive)
- GI50 (HOP-92): 3.15 µM (inactive)
- GI50 (HT-29): 4.05 µM (inactive)
- GI50 (Hs-578T): 4.42 µM (inactive)
- GI50 (IGROV-1): 3.84 µM (inactive)
- GI50 (K562): 3.21 µM (inactive)
- GI50 (KM12): 1.41 µM (inactive)
- GI50 (LOX IMVI): 3.53 µM (inactive)
- GI50 (M14): 4.21 µM (inactive)
- GI50 (MDA-MB-231): 4 µM (inactive)
- GI50 (MDA-MB-435): 3.94 µM (inactive)
- GI50 (MDA-N): 4 µM (inactive)
- GI50 (MOLT-4): 3.73 µM (inactive)
- GI50 (Malme-3M): 4.82 µM (inactive)
- GI50 (NCI-H226): 4.5 µM (inactive)
- GI50 (NCI-H23): 3.93 µM (inactive)
- GI50 (NCI-H460): 4.48 µM (inactive)
- GI50 (NCI-H522): 3.87 µM (inactive)
- GI50 (NCI/ADR-RES): 4.83 µM (inactive)
- GI50 (OVCAR-3): 3.11 µM (inactive)
- GI50 (OVCAR-4): 4.01 µM (inactive)
- GI50 (OVCAR-5): 3.66 µM (inactive)
- GI50 (OVCAR-8): 4.21 µM (inactive)
- GI50 (PC-3): 3.77 µM (inactive)
- GI50 (RPMI-8226): 0.935 µM (active)
- GI50 (RXF 393): 4.05 µM (inactive)
- GI50 (SF-268): 4.11 µM (inactive)
- GI50 (SF-295): 4.26 µM (inactive)
- GI50 (SK-MEL-28): 3.72 µM (inactive)
- GI50 (SK-MEL-2): 2.82 µM (inactive)
- GI50 (SK-MEL-5): 3.85 µM (inactive)
- GI50 (SK-OV-3): 4.2 µM (inactive)
- GI50 (SN12C): 4.28 µM (inactive)
- GI50 (SNB-19): 3.57 µM (inactive)
- GI50 (SNB-75): 3.64 µM (inactive)
- GI50 (SR): 3.99 µM (inactive)
- GI50 (SW-620): 4.02 µM (inactive)
- GI50 (T47D): 3.14 µM (inactive)
- GI50 (TK-10): 4.66 µM (inactive)
- GI50 (U-251): 2.39 µM (inactive)
- GI50 (UACC-257): 4.41 µM (inactive)
- GI50 (UACC-62): 4.14 µM (inactive)
- GI50 (UO-31): 4.3 µM (inactive)

Structure (SMILES): COc1c(OC(C)C)cc2cc(O)c(C(=O)NC3Cc4ccc(c(Cl)n4)O[C@@H]4C=C5C#C/C(=C\C#CC6OC56C4OC4CC(C)(O)C(O)C(C)O4)C(OC4CC(O)C(N(C)C)C(C)O4)COC3=O)cc2c1OC (some centres undefined)
- GI50 (A498): > 36.3 µM (inactive)
- GI50 (BT-549): > 36.3 µM (inactive)
- GI50 (CAKI-1): 10.9 µM (inactive)
- GI50 (DU-145): 11.5 µM (inactive)
- GI50 (HCC 2998): > 36.3 µM (inactive)
- GI50 (HOP-92): > 36.3 µM (inactive)
- GI50 (Hs-578T): > 36.3 µM (inactive)
- GI50 (MCF7): 2.64 µM (inactive)
- GI50 (MDA-MB-435): > 36.3 µM (inactive)
- GI50 (MDA-N): > 36.3 µM (inactive)
- GI50 (Malme-3M): > 36.3 µM (inactive)
- GI50 (NCI-H226): > 36.3 µM (inactive)
- GI50 (NCI/ADR-RES): > 36.3 µM (inactive)
- GI50 (PC-3): 35.8 µM (inactive)
- GI50 (RXF 393): > 36.3 µM (inactive)
- GI50 (SK-MEL-28): > 36.3 µM (inactive)
- GI50 (SK-MEL-2): > 36.3 µM (inactive)
- GI50 (SNB-75): > 36.3 µM (inactive)
- GI50 (T47D): > 36.3 µM (inactive)
